Assay results as given in US10357036B2, “Compounds for controlling arthropods” (priority 2015, dated 2019).
Several values for one entry are separate records, joined by “and”; a condition that tells them apart may be missing. Identical values can stand only once.

How the values were obtained:
[1] = tested on: Ctenocephalides felis; assay: Ctenocephalides felis oral test; format: in vivo; conditions: 100 ppm in citrated cattle blood; after 2 days
Procedure: • Solvent: Dimethyl Sulfoxide
To produce a suitable active ingredient formulation, 10 mg of active ingredient are mixed with 0.5 ml of dimethyl sulfoxide. Dilution with citrated cattle blood gives the desired concentration.
About 20 unfed adult cat fleas (Ctenocephalides fells) are placed into a chamber which is closed at the top and bottom with gauze. A metal cylinder whose bottom end is closed with parafilm is placed onto the chamber. The cylinder contains the blood/active ingredient formulation, which can be imbibed by the fleas through the parafilm membrane.

[2] = tested on: Ctenocephalides felis; assay: Ctenocephalides felis in vitro contact test with adult cat fleas; format: in vivo; conditions: application rate 5 μg/cm^2 (=500 g/ha); after 48 h; dead or moribund fleas
Procedure: (§1) For the coating of the test tubes, 9 mg of active ingredient are first dissolved in 1 ml of acetone p.a. and then diluted to the desired concentration with acetone p.a. 250 μl of the solution are distributed homogeneously on the inner walls and the base of a 25 ml glass tube by turning and rocking on an orbital shaker (rocking rotation at 30 rpm for 2 h). With 900 ppm of active ingredient solution and internal surface area 44.7 cm^2, given homogeneous distribution, an area-based dose of 5 μg/cm^2 is achieved.
After the solvent has evaporated off, the tubes are populated with 5-10 adult cat fleas (Ctenocephalides felis), sealed with a perforated plastic lid and incubated in a horizontal position at room temperature and ambient humidity. After 48 h, efficacy is determined. To this end, the tubes are stood upright and the fleas are knocked to the base of the tube. Fleas which remain motionless at the base or move in an uncoordinated manner are considered to be dead or moribund.
100% efficacy means that all the fleas were dead or moribund. 0% efficacy means that no fleas were harmed.

[3] = tested on: Boophilus microplus; assay: Boophilus microplus injection test; format: in vivo; conditions: 20 μg/animal; assessed after 7 days
Procedure: (§2) • Solvent: dimethyl sulfoxide
1 μl of the active ingredient solution is injected into the abdomen of 5 engorged adult female cattle ticks (Boophilus microplus). The animals are transferred into dishes and kept in a climate-controlled room.

[4] = tested on: Spodoptera frugiperda; assay: Spodoptera frugiperda spray test; format: in vivo; conditions: 100 g/ha; after 7 days
[5] = tested on: Musca domestica; assay: Musca domestica test; format: in vivo; conditions: 100 ppm; adult houseflies; after 2 days
Procedure: as §2
To produce a suitable active ingredient formulation, 10 mg of active ingredient are mixed with 0.5 ml of dimethyl sulfoxide, and the concentrate is diluted with water to the desired concentration.
Vessels containing a sponge treated with sugar solution and the active ingredient formulation of the desired concentration are populated with 10 adult houseflies (Musca domestica).

[6] = tested on: Tetranychus urticae; assay: Tetranychus urticae spray test, OP-resistant (bean leaf discs); format: in vivo; conditions: 100 g/ha; after 6 days
Procedure: After 6 days, the efficacy in % is determined.

[7] = tested on: Phaedon cochleariae; assay: Phaedon cochleariae spray test; conditions: 100 g/ha; after 7 days
[8] = tested on: Rhipicephalus sanguineus; assay: Rhipicephalus sanguineus in vitro contact test with adult brown dog ticks; format: in vivo; conditions: after 48 h
Procedure: as §1
After the solvent has evaporated off, the tubes are populated with 5-10 adult dog ticks (Rhipicephalus sanguineus), sealed with a perforated plastic lid and incubated in a horizontal position in the dark at room temperature and ambient humidity. After 48 h, efficacy is determined. To this end, the ticks are knocked to the base of the tube and incubated on a hotplate at 45-50° C. for not more than 5 min. Ticks which remain motionless on the base or move in such an uncoordinated manner that they are unable to deliberately avoid the heat by climbing upwards are considered to be dead or moribund.
An efficacy of 100% means that all the ticks were dead or moribund. 0% efficacy means that none of the ticks were harmed.

[9] = application rate 5 μg/cm^2 (=500 g/ha), dead or moribund ticks

| Compound | efficacy (rate of extermination) [1] [%] | efficacy [2] [%] | efficacy (laying of fertile eggs) [3] [%] | efficacy [4] [%] | efficacy (rate of extermination) [5] [%] | efficacy [6] | efficacy [7] [%] | efficacy [8, 9] [%] | efficacy ([8]; application rate 1 μg/cm^2 (=100 g/ha)) [%] |
| --- | --- | --- | --- | --- | --- | --- | --- | --- | --- |
| CCC(=O)N(C)Cc1cc(-c2cnn(-c3c(Cl)cc(C(F)(C(F)(F)F)C(F)(F)F)cc3Cl)c2)ccc1F [Ia-71] | 100 | 100 | 100 | 100 | 100 | 100% | 100 | – | – |
| CC(=O)NCc1cc(-c2cnn(-c3c(Cl)cc(C(F)(C(F)(F)F)C(F)(F)F)cc3Cl)c2)cnc1Cl [Ia-130] | 100 | 100 | 100 | 100 | 100 | 90% | 100 | – | – |
| CCC(=O)NCc1cc(-c2cnn(-c3c(Cl)cc(C(F)(C(F)(F)F)C(F)(F)F)cc3Cl)c2)ccc1Cl [Ia-16] | 100 | 100 | 100 | 100 | 100 | – | 100 | 100 | – |
| CCC(=O)N(C)Cc1cc(-c2cnn(-c3c(Cl)cc(C(F)(C(F)(F)F)C(F)(F)F)cc3Cl)c2)ccc1Cl [Ia-32] | 100 | 100 | 100 | 100 | – | 100% | 100 | 80 | – |
| CCC(=O)NC1CCc2ccc(-c3cnn(-c4c(Cl)cc(C(F)(C(F)(F)F)C(F)(F)F)cc4OC(F)F)c3)cc21 (stereo not drawn) [I-Tc-03] | 100 | 100 | 100 | 100 | – | 100% | – | 100 | – |
| CCC(=O)NCc1cccc(-c2cnn(-c3c(C)cc(C(F)(C(F)(F)F)C(F)(F)F)cc3Cl)c2)c1 [Ia-69] | 100 | 100 | 100 | 100 | 100 | – | 100 | – | 80 |
| CC(=O)NCc1cc(-c2cnn(-c3c(Cl)cc(C(F)(C(F)(F)F)C(F)(F)F)cc3OC(F)(F)F)c2)cnc1Cl [Ia-131] | 100 | 100 | 100 | 100 | 100 | – | 100 | – | – |
| CCC(=O)NCc1cc(-c2cnn(-c3c(Cl)cc(C(F)(C(F)(F)F)C(F)(F)F)cc3OC(F)(F)F)c2)ccc1F [Ia-26] | 100 | – | 100 | 100 | 100 | 90% | 100 | 80 | – |
| Cc1cc(C(F)(C(F)(F)F)C(F)(F)F)cc(C)c1-n1cc(-c2ccc(F)c(CNC(=O)C3CC3)c2)cn1 [Ia-04] | 100 | – | 100 | 100 | 100 | 100% | 100 | 100 | – |
| CC(=O)N(C)Cc1cc(-c2cnn(-c3c(Cl)cc(C(F)(C(F)(F)F)C(F)(F)F)cc3Cl)c2)ccc1F [Ia-64] | 100 | 100 | 100 | 100 | 100 | 100% | 100 | – | – |
| CSc1cc(C(F)(C(F)(F)F)C(F)(F)F)cc(Cl)c1-n1cc(-c2ccc(F)c(CNC(C)=O)c2)cn1 [Ia-07] | 100 | 100 | 100 | 83 | 100 | 100% | 100 | – | – |
| CC(C)C(=O)NCc1cc(-c2cnn(-c3c(Cl)cc(C(F)(C(F)(F)F)C(F)(F)F)cc3C(F)F)c2)ccc1F [Ia-60] | 100 | 100 | 100 | 100 | 100 | 100% | 100 | – | – |
| CC(=O)N(C)Cc1cc(-c2cnn(-c3c(Cl)cc(C(F)(C(F)(F)F)C(F)(F)F)cc3Cl)c2)cnc1Cl [Ia-73] | 100 | 100 | 100 | 100 | 100 | 100% and 90% | 100 | – | – |
| O=C(NCc1cc(-c2cnn(-c3c(Cl)cc(C(F)(C(F)(F)F)C(F)(F)F)cc3OC(F)F)c2)ccc1Cl)C1CC1 [Ia-52] | 100 | 100 | 100 | 100 | 100 | – | 100 | 100 | – |
| CCC(=O)NCc1cc(-c2cnn(-c3c(Cl)cc(C(F)(C(F)(F)F)C(F)(F)F)cc3Cl)c2)ccc1F [Ia-30] | 100 | 100 | 100 | 100 | 100 | – | – | 100 | – |
| CCOCN(Cc1cc(-c2cnn(-c3c(Cl)cc(C(F)(C(F)(F)F)C(F)(F)F)cc3Cl)c2)ccc1Cl)C(C)=O [Ia-117] | 100 | 100 | 100 | 100 | 100 | – | 100 | – | – |
| N#Cc1cc(C(F)(C(F)(F)F)C(F)(F)F)cc(Cl)c1-n1cc(-c2ccc(F)c(CNC(=O)C3CC3)c2)cn1 [Ia-107] | 100 | 100 | 100 | 100 | 100 | 100% | 100 | – | – |
| O=C(CC(F)(F)F)NCc1cc(-c2cnn(-c3c(Cl)cc(C(F)(C(F)(F)F)C(F)(F)F)cc3OC(F)(F)F)c2)ccc1F [Ia-19] | 100 | – | 100 | 100 | 100 | 90% | 100 | 100 | – |
| CC(=O)NCc1c(F)ccc(-c2cnn(-c3c(Cl)cc(C(F)(C(F)(F)F)C(F)(F)F)cc3OC(F)F)c2)c1F [Ia-158] | 100 | 100 | 100 | 100 | 100 | 100% | 100 | – | – |
| CCC(=O)NCc1c(F)ccc(-c2cnn(-c3c(Cl)cc(C(F)(C(F)(F)F)C(F)(F)F)cc3OC(F)F)c2)c1F [Ia-157] | 100 | – | 100 | 100 | 100 | 90% | 100 | 100 | – |
| C=CCN(Cc1cc(-c2cnn(-c3c(Cl)cc(C(F)(C(F)(F)F)C(F)(F)F)cc3Cl)c2)ccc1Cl)C(C)=O [Ia-113] | 100 | 100 | 100 | 100 | 100 | 90% | 100 | – | – |
| CC(=O)NCc1cccc(-c2cnn(-c3c(C)cc(C(F)(C(F)(F)F)C(F)(F)F)cc3Cl)c2)c1 [Ia-68] | 100 | – | 100 | 83 | 100 | 100% | 100 | 80 | – |
